Where a name gives a salt, the structure may show the parent alone. Read-outs that look alike come from different tables or passages of the source.

By IC50 is commonly meant the concentration that inhibits the measured activity by half.

Assay [1] has as its target PI3Kγ (p110γ) Recombinant Human Protein (Homo sapiens (Human), UniProt P48736). Description: PI3K-γ scintillation proximity assay. It counts as biochemical. Background: Scintillation proximity formats need no separation of bound from free tracer.
Assay [2] addresses PI3Kδ (p1106/p85a) Recombinant Human Protein (Homo sapiens (Human), UniProt O00329). Description: PI3Kδ scintillation proximity assay. It counts as biochemical.
Assay [3] relates to Phosphorylated Ribosomal Protein S6 (RPS6) in THP-1 cells. Description: THP-1 RPS6 ELISA assay. It counts as cell-based, Human. As to conditions: THP-1 cells, 10 nM MCP-1, phospho-RPS6 ELISA, read-out: PI3Kγ_THP1_RPS6_ELISA IC50. The source says:
Example A. THP-1 RPS6 ELISA Assay
To measure the Phosphorylated Ribosomal Protein S6 (RPS6) in cell lysates, THP-1 cells (Human Acute Monocytic Leukemia) are purchased from ATCC (Manassas, VA) and maintained in RPMI with 10% FBS (Gibco/Life Technologies, Carlsbad, CA). For the assay, THP-1 cells are serum starved overnight in RPMI, then plated in RPMI (2×10^5 cells/well in […]) into 96-well flat-bottom tissue culture treated plates (Corning, Corning, NY), in the presence or absence of a concentration range of test compounds. Covered plates are incubated for 2 hours at 37° C., 5% CO2 then treated with or without 10 nM MCP-1(MYBioSource, San Diego, CA) for 15 minutes at 37° C., 5% CO2. Plates are centrifuged at 1600 RPM and supernatants are removed. Cells are lysed in Lysis Buffer (Cell Signaling, Danvers, MA) with Protease Inhibitor (Calbiochem/EMD, Germany), PMSF (Sigma, St Louis MO), HALTS (Thermo Fisher, Rockford, IL) for 30 min on wet ice. Cell lysates are frozen at −80° C. before testing. The lysates are tested in the Human/Mouse/Rat Phospho-RPS6 ELISA (R&D Systems, Inc. Minn, MN). The plate is measured using a microplate reader (SpectraMax M5—Molecular Devices, LLC Sunnyvale, CA) set to 450 nm with a wavelength correction of 540. IC50 determination is performed by fitting the curve of inhibitor percent inhibition versus the log of the inhibitor concentration using the GraphPad Prism 5.0 software.
The compounds of the Examples were tested in the assays described in Examples A, B and C and found to have the IC50s are shown in Tables A1, A2, A3 and A4.
On the technique in general: ELISA stands for enzyme-linked immunosorbent assay.

The mark [4] stands for this setting: Table A3, scintillation proximity assay, recombinant human p110γ.
[5] abbreviates: Table A3, scintillation proximity assay, recombinant human PI3Kδ.
The mark [6] stands for this setting: Table A1, scintillation proximity assay, recombinant human p110γ.
[7] abbreviates: Table A1, scintillation proximity assay, recombinant human PI3Kδ.

PI3Kγ (p110γ) Recombinant Human Protein, sequence (P48736 whole entry): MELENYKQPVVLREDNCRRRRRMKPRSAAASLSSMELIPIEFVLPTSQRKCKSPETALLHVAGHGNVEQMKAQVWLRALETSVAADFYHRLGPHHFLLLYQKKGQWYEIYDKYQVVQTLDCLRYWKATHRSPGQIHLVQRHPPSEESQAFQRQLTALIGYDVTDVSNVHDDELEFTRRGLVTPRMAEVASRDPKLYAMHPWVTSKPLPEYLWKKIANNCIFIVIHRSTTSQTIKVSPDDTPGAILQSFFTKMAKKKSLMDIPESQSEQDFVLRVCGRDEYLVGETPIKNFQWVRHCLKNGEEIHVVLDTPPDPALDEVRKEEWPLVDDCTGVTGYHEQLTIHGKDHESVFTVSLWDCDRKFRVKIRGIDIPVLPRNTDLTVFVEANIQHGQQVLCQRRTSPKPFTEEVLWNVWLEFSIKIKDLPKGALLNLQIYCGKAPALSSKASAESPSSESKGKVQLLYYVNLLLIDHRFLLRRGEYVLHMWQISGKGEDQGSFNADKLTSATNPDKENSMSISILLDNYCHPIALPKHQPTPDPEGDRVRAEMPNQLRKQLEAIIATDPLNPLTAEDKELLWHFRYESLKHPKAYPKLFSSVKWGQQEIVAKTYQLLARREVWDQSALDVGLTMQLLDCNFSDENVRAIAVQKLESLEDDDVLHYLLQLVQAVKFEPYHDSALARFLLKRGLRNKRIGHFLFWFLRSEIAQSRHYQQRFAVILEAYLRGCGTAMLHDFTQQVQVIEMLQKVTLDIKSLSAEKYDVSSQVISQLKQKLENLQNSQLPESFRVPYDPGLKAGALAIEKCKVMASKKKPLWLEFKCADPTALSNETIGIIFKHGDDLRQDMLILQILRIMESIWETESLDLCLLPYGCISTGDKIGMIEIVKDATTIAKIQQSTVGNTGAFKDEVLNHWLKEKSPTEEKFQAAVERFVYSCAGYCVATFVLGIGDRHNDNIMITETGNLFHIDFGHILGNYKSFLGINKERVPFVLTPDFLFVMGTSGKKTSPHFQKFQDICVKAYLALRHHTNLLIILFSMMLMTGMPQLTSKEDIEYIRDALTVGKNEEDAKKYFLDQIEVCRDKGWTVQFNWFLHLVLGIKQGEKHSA
PI3Kδ (p1106/p85a) Recombinant Human Protein, sequence (O00329 whole entry): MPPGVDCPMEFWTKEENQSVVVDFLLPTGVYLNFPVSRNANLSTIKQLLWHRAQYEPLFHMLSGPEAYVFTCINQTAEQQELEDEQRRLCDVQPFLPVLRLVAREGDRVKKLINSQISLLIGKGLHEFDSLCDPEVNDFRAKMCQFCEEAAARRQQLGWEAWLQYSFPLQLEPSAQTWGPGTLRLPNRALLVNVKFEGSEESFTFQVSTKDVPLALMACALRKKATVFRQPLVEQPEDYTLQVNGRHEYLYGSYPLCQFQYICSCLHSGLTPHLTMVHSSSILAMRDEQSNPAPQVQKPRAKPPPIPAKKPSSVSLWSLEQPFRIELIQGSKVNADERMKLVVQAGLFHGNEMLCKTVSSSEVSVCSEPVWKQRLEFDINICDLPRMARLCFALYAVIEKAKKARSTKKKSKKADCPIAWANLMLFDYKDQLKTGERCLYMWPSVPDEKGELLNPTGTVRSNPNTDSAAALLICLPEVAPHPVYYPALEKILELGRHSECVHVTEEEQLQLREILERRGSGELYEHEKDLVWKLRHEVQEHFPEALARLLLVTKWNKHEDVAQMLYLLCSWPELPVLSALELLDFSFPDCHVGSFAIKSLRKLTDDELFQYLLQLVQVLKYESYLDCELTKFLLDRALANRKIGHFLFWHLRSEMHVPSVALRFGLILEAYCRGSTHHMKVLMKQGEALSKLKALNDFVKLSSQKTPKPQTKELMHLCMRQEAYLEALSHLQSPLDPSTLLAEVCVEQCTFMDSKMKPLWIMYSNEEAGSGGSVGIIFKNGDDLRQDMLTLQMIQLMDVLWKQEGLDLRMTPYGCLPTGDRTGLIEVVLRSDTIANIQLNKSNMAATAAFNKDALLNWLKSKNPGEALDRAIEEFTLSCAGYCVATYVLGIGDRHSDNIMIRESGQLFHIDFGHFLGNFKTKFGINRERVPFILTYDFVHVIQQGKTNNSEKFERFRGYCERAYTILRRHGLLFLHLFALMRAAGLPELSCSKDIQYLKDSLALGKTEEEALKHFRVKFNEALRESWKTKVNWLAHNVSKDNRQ
PI3Kδ (p1106/p85a) Recombinant Human Protein, sequence (P27986 whole entry partner): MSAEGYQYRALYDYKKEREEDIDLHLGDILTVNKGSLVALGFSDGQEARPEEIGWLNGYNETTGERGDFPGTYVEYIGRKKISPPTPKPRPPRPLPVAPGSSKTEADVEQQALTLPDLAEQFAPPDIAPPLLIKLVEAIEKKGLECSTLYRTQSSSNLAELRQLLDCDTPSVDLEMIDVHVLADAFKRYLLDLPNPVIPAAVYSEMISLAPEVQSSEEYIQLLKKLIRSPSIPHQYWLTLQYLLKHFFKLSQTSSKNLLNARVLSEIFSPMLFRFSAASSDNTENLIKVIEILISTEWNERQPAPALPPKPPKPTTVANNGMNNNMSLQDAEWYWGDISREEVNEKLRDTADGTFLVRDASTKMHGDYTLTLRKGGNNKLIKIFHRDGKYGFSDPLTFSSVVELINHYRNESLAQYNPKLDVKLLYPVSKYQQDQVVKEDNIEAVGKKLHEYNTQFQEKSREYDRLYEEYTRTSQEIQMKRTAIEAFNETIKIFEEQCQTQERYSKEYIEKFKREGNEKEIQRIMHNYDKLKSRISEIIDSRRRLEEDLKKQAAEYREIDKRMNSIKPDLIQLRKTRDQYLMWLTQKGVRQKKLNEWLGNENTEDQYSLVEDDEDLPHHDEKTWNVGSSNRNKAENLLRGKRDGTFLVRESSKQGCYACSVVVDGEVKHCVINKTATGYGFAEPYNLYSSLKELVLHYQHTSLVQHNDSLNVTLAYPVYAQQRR

In the case of `Cc1ccc(C(O)(C(N)=O)C(F)(F)F)cc1-c1cnc(N)c(-c2cnc(C3CC3)s2)n1` (stereo not drawn) [Example 84, 2-(3-(5-amino-6-(2-cyclopropylthiazol-5-yl)pyrazin-2-yl)-4-methylphenyl)-3,3,3-trifluoro-2-hydroxypropanamide trifluoroacetate], the IC50 in assay [1] (setting [4]) is under 0.1 µM; in assay [2] (setting [5]), under 0.1 µM; in assay [3] (Homo sapiens, Table A3) it was 0.1 to 0.5 µM.
`Cc1ccc(C(O)(C(N)=O)C(F)(F)F)cc1-c1cnc(N)c(-c2ccc(C(F)(F)F)nc2)n1` (stereo not drawn) [Example 83, 2-(3-(5-amino-6-(6-(trifluoromethyl)pyridin-3-yl)pyrazin-2-yl)-4-methylphenyl)-3,3,3-trifluoro-2-hydroxypropanamide bistrifluoroacetate]: the IC50 in assay [1] (setting [4]) is under 0.1 µM; in assay [2] (setting [5]), under 0.1 µM; in assay [3] (Homo sapiens, Table A3), 0.1 to 0.5 µM.
For `COCCn1cc(-c2nc(-c3cc(C(O)(C(N)=O)C(F)(F)F)ccc3C)cnc2N)cn1` (stereo not drawn) [Example 79, 2-(3-(5-amino-6-(1-(2-methoxyethyl)-1H-pyrazol-4-yl)pyrazin-2-yl)-4-methylphenyl)-3,3,3-trifluoro-2-hydroxypropanamide trifluoroacetate], the IC50 in assay [1] (setting [4]) was under 0.1 µM; in assay [2] (setting [5]) it was under 0.1 µM; in assay [3] (Homo sapiens, Table A3), under 0.1 µM.
As for `Cc1ccc(C(O)(C(N)=O)C(F)(F)F)cc1-c1cnc(N)c(-c2ccnc(CO)c2)n1` (stereo not drawn) [Example 85, 2-(3-(5-amino-6-(2-(hydroxymethyl)pyridin-4-yl)pyrazin-2-yl)-4-methylphenyl)-3,3,3-trifluoro-2-hydroxypropanamide bistrifluoroacetate], the IC50 in assay [1] (setting [4]) is under 0.1 µM; in assay [2] (setting [5]), under 0.1 µM; in assay [3] (Homo sapiens, Table A3) it was 0.1 to 0.5 µM.
With `Cc1ccc(C(O)(C(N)=O)C(F)(F)F)cc1-c1cnc(N)c(-c2cnn(CC(F)(F)F)c2)n1` (stereo not drawn) [Example 75, 2-(3-(5-amino-6-(1-(2,2,2-trifluoroethyl)-1H-pyrazol-4-yl)pyrazin-2-yl)-4-methylphenyl)-3,3,3-trifluoro-2-hydroxypropanamide trifluoroacetate], the IC50 in assay [1] (setting [4]) is under 0.1 µM; in assay [2] (setting [5]) it was under 0.1 µM; in assay [3] (Homo sapiens, Table A3), under 0.1 µM.
`Cc1ccc(C(O)(C(N)=O)C(F)(F)F)cc1-c1cnc(N)c(-c2cccc(C(C)C)c2)n1` (stereo not drawn) [Example 90, 2-(3-(5-amino-6-(3-isopropylplienyl)pyrazin-2-yl)-4-methylphenyl)-3?3,3-trifluoro-2-hydroxypropanamide trifluoroacetate]: the IC50 in assay [1] (setting [4]) was under 0.1 µM; in assay [2] (setting [5]), 0.1 to 0.5 µM; in assay [3] (Table A3), 0.1 to 0.5 µM.
Consider `COC[C@H]1CCN1C(=O)c1nc(-c2cc(C(O)(C(N)=O)C(F)(F)F)ccc2C)cnc1N` (stereo partly drawn) [Example 26, 2-(3-(5-amino-6-((R)-2-(methoxymethyl)azetidine-1-carbonyl)pyrazin-2-yl)-4-methylphenyl)-3,3,3-trifluoro-2-hydroxypropanamide], for which the IC50 is under 0.1 µM in assay [1] (setting [6]); under 0.1 µM in assay [2] (setting [7]); 0.1 to 0.5 µM in assay [3] (Homo sapiens, Table A1).
For the molecule `Cc1ccc(C(O)(C(N)=O)C(F)(F)F)cc1-c1cnc(N)c(C(=O)N[C@H]2CC[C@@](O)(C(F)(F)F)CC2)n1` (stereo partly drawn) [Example 18, 3-amino-6-(5-(3-amino-1,1,1-trifluoro-2-hydroxy-3-oxopropan-2-yl)-2-methylphenyl)-N-((1r,4r)-4-hydroxy-4-(trifluoromethyl)cyclohexyl)pyrazine-2-carboxamide trifluoroacetate], the IC50 in assay [1] (setting [6]), in assay [2] (setting [7]) and in assay [3] (Table A1) was under 0.1 µM in each case.
For `Cc1ccc(C(O)(CNC(=O)CC#N)C(F)(F)F)cc1-c1cnc(N)c(C(=O)NC(C)C)n1` (stereo not drawn) [Example 42, 3-Amino-6-(5-(3-(2-cyanoacetamido)-1,1,1-trifluoro-2-hydroxypropan-2-yl)-2-methylphenyl)-N-isopropylpyrazine-2-carboxamide trifluoroacetate], the IC50 in assay [1] (setting [6]) is under 0.1 µM; in assay [2] (setting [7]) it was under 0.1 µM; in assay [3] (Homo sapiens, Table A1) it was 0.1 to 0.5 µM.
`Cc1ccc(C(O)(C(N)=O)C(F)(F)F)cc1-c1cnc(N)c(-c2ccc(C(C)(C)O)cc2)n1` (stereo not drawn) [Example 91, 2-(3-(5-amino-6-(4-(2-hydroxypropan-2-yl)phenyl)pyrazin-2-yl)-4-methylphenyl)-3,3,3-trifluoro-2-hydroxypropanamide trifluoroacetate]: the IC50 in assay [1] (setting [4]) was under 0.1 µM; in assay [2] (setting [5]), under 0.1 µM; in assay [3] (Homo sapiens, Table A3) it was under 0.1 µM.
Turning to `CCCc1nc(-c2cc(C(O)(C(N)=O)C(F)(F)F)ccc2C)cnc1N` (stereo not drawn) [Example 45, 2-(3-(5-amino-6-propylpyrazin-2-yl)-4-methylphenyl)-3,3,3-trifluoro-2-hydroxypropanamide], the half-inhibitory concentration (IC50) in assay [1] (Table A2, scintillation proximity assay, recombinant human p110γ) is under 0.1 µM; in assay [2] (Table A2, scintillation proximity assay, recombinant human PI3Kδ), 0.1 to 0.5 µM; in assay [3] (Homo sapiens, Table A2), 0.1 to 0.5 µM.
Regarding `CNC(=O)c1ccc(-c2nc(-c3cc(C(O)(C(N)=O)C(F)(F)F)ccc3C)cnc2N)cc1` (stereo not drawn) [Example 89, 4-(3-amino-6-(5-(3-amino-1,1,1-trifluoro-2-hydroxy-3-oxopropan-2-yl)-2-methylphenyl)pyrazin-2-yl)-N-methylbenzamide trifluoroacetate], the IC50 is under 0.1 µM in assay [1] (setting [4]); under 0.1 µM in assay [2] (setting [5]); 0.1 to 0.5 µM in assay [3] (Homo sapiens, Table A3).
Consider `Cc1ccc(C(O)(C(N)=O)C(F)(F)F)cc1-c1cnc(N)c(C(=O)N[C@H]2CC[C@](C)(O)CC2)n1` (stereo partly drawn) [Example 17, 3-amino-6-(5-(3-amino-1,1,1-trifluoro-2-hydroxy-3-oxopropan-2-yl)-2-methylphenyl)-N-((1r,4r)-4-hydroxy-4-methylcyclohexyl)pyrazine-2-carboxamide trifluoroacetate], for which the IC50 in assay [1] (setting [6]), in assay [2] (setting [7]) and in assay [3] (Table A1) was under 0.1 µM in each case.
In the case of `Cc1ccc(C(O)(C(N)=O)C(F)(F)F)cc1-c1cnc(N)c(-c2cnn(CC3(C#N)CC3)c2)n1` (stereo not drawn) [Example 78, 2-(3-(5-amino-6-(1-((1-cyanocyclopropyl)methyl)-1H-pyrazol-4-yl)pyrazin-2-yl)-4-methylphenyl)-3,3,3-trifluoro-2-hydroxypropanamide trifluoroacetate], the IC50 in assay [1] was under 0.1 µM; in assay [2], under 0.1 µM; in assay [3] (Homo sapiens, Table A3) it was under 0.1 µM.
Take `Cc1ccc(C(O)(CNC=O)C(F)(F)F)cc1-c1cnc(N)c(-c2cn[nH]c2)n1` (stereo not drawn) [Example 103, N-(2-(3-(5-amino-6-(1H-pyrazol-4-yl)pyrazin-2-yl)-4-methylphenyl)-3,3,3-trifluoro-2-hydroxypropyl)formamide trifluoroacetate]: the IC50 in assay [1] (setting [4]) was under 0.1 µM; in assay [2] (setting [5]), 0.1 to 0.5 µM; in assay [3] (Homo sapiens, Table A3) it was 0.1 to 0.5 µM.
Take `Cc1ccc(C(O)(C(N)=O)C(F)(F)F)cc1-c1cnc(N)c(-c2cnnn2C)n1` (stereo not drawn) [Example 74, 2-(3-(5-amino-6-(1-methyl-1H-1,2,3-triazol-5-yl)pyrazin-2-yl)-4-methylphenyl)-3,3,3-trifluoro-2-hydroxypropanamide trifluoroacetate]: the IC50 in assay [1] (setting [4]) was under 0.1 µM; in assay [2] (setting [5]), under 0.1 µM; in assay [3] (Homo sapiens, Table A3) it was under 0.1 µM.
In the case of `CC(=O)NCC(O)(c1ccc(C)c(-c2cnc(N)c(C(=O)NC(C)C)n2)c1)C(F)(F)F` (stereo not drawn) [Example 39, 6-(5-(3-Acetamido-1,1,1-trifluoro-2-hydroxypropan-2-yl)-2-methylphenyl)-3-amino-N-isopropylpyrazine-2-carboxamide trifluoroacetate], the IC50 in assay [1] (setting [6]) was under 0.1 µM; in assay [2] (setting [7]), under 0.1 µM; in assay [3] (Homo sapiens, Table A1), 0.1 to 0.5 µM.
Regarding `Cc1ccc(-c2nc(-c3cc(C(O)(C(N)=O)C(F)(F)F)ccc3C)cnc2N)cn1` (stereo not drawn) [Example 82, 2-(3-(5-amino-6-(6-methylpyridin-3-yl)pyrazin-2-yl)-4-methylphenyl)-3,3,3-trifluoro-2-hydroxypropanamide bistrifluoroacetate], the IC50 was under 0.1 µM in assay [1] (setting [4]); under 0.1 µM in assay [2] (setting [5]); 0.1 to 0.5 µM in assay [3] (Homo sapiens, Table A3).

These data come from patent US20250388553A1 (Incyte Corporation, priority 2018, published 2025).
